Assay [1] concerns the target Gamma-aminobutyric acid receptor subunit alpha-1 (Rattus norvegicus, UniProt P62813). The class given is functional.
The target of a further assay is D(1A) dopamine receptor (Homo sapiens, UniProt P21728). The format is functional, cell-based.
The target of another assay is D(3) dopamine receptor (Homo sapiens, UniProt P35462).
A further assay has as its target Melanocortin receptor 3 (Homo sapiens, UniProt P41968).
For assay [2], the target named is 3',5'-cyclic-AMP phosphodiesterase 4D (Homo sapiens, UniProt Q08499). The format is functional.
3',5'-cyclic-AMP phosphodiesterase 4D, sequence (Q08499 whole entry): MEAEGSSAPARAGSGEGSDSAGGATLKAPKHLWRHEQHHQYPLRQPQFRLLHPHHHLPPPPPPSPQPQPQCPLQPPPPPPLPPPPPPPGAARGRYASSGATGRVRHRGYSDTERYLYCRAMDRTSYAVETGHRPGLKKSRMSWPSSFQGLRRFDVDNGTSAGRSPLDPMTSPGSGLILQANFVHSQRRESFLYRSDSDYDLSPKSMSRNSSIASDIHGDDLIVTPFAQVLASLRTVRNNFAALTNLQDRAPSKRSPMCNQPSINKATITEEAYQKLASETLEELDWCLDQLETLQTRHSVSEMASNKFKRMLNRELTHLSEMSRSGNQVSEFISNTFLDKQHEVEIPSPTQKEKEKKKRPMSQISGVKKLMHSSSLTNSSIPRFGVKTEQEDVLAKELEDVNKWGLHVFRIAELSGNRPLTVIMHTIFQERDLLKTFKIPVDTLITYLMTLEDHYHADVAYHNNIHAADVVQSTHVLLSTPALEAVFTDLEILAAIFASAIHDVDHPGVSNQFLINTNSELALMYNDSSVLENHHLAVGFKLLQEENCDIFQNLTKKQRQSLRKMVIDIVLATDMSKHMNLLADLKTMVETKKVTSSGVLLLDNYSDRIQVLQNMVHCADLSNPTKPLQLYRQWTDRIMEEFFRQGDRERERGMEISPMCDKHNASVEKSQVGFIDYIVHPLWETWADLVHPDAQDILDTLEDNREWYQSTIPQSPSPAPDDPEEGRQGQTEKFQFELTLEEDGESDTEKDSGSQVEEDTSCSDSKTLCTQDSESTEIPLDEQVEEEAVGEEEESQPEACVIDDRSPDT
Assay [3] has as its target 5-hydroxytryptamine receptor 2B (Homo sapiens, UniProt P41595). The class given is functional, cell-based.
The target in another assay is T1, Adenosine receptor A3 (Homo sapiens, UniProt P0DMS8).
T1 sequence (P0DMS8 whole entry): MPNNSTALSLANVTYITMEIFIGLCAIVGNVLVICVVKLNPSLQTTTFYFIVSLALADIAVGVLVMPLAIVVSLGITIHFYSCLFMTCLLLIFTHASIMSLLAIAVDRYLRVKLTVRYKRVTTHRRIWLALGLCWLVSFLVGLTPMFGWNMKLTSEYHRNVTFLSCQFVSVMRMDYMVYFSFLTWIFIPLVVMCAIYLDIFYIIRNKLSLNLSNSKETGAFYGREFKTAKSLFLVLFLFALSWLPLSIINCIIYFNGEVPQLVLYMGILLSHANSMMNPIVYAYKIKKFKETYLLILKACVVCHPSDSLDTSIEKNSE

For assay [4], the target named is Voltage-gated inwardly rectifying potassium channel KCNH2 (Homo sapiens, UniProt Q12809). The format is functional. The note with it: read-out: AC50.
Voltage-gated inwardly rectifying potassium channel KCNH2, sequence (Q12809 whole entry): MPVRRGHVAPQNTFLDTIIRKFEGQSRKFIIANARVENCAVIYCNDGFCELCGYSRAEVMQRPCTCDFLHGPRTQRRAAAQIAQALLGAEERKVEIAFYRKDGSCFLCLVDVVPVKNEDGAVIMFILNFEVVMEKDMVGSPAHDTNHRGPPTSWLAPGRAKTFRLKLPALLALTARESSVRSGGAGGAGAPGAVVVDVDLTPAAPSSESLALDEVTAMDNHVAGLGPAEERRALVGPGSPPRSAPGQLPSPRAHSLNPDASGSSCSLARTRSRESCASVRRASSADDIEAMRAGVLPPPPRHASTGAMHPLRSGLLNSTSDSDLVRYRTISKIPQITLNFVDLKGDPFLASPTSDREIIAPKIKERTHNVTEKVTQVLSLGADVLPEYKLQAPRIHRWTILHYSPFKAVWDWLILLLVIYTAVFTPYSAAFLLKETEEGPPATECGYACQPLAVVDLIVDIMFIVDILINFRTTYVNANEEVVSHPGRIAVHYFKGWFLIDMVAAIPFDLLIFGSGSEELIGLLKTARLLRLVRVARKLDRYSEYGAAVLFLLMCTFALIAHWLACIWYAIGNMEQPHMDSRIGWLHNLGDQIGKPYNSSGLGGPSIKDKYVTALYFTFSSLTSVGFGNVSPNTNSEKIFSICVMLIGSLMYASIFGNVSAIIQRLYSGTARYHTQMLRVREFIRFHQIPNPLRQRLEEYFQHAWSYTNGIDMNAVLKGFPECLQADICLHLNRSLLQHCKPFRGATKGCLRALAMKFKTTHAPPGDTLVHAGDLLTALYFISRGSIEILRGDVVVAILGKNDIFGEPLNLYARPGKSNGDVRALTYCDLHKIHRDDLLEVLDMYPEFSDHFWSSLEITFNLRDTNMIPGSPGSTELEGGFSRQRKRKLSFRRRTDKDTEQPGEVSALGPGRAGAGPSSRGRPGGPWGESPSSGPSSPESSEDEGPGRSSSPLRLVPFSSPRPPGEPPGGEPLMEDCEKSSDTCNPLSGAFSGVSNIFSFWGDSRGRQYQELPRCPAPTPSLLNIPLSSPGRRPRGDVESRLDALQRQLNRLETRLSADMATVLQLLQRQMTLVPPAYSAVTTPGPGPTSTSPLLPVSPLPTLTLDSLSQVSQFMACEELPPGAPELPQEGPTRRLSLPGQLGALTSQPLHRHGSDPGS
The target in assay [5] is T2, Alpha-2C adrenergic receptor (Homo sapiens, UniProt P18825).
T2 sequence (P18825 whole entry): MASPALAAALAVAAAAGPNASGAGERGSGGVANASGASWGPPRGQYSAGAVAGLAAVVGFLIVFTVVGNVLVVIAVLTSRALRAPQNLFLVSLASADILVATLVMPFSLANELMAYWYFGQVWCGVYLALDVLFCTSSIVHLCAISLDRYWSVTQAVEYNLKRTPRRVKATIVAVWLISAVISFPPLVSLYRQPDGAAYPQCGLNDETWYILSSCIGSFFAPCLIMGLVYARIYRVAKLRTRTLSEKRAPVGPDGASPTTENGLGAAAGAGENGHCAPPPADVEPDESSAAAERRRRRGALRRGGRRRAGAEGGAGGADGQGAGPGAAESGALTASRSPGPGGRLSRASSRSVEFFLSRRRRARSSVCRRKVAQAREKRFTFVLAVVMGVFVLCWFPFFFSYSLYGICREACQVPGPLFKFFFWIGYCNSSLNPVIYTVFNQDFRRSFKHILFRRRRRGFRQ
The class given is functional.

Assay [6] deals with T3, Prostaglandin G/H synthase 1 (Rattus norvegicus, UniProt Q63921).
T3 sequence (Q63921 whole entry): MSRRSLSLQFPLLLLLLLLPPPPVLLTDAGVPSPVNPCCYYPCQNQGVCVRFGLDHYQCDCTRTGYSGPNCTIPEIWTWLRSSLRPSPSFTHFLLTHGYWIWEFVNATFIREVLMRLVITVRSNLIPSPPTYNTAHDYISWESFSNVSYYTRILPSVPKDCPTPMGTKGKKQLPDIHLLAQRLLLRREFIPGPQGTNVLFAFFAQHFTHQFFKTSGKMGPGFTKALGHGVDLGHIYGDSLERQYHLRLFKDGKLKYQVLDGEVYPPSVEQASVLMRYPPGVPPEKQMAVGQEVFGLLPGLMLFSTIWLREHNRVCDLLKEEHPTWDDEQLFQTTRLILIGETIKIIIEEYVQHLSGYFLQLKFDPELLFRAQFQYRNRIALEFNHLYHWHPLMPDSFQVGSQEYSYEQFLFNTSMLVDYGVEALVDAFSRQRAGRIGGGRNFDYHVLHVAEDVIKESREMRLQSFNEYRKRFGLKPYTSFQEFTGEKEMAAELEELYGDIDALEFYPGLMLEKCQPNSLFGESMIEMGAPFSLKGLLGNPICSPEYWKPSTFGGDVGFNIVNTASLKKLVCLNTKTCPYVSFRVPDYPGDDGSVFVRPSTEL
The format is functional.

In assay [7] the target is T4, Cholecystokinin receptor type A (Homo sapiens, UniProt P32238).
T4 sequence (P32238 whole entry): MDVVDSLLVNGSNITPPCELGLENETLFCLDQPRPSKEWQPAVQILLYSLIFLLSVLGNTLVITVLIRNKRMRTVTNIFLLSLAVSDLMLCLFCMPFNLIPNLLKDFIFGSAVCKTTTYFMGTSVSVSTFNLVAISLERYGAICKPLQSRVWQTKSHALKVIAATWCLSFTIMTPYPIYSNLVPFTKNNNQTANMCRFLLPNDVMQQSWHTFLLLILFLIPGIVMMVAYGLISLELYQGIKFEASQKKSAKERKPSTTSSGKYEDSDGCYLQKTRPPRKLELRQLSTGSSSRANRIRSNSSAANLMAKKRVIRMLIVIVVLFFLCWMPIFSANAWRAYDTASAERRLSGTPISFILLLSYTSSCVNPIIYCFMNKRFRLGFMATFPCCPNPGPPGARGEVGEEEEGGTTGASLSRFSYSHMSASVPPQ

Assay [8] has as its target T5, Alpha-2A adrenergic receptor (Homo sapiens, UniProt P08913).
T5 sequence (P08913 whole entry): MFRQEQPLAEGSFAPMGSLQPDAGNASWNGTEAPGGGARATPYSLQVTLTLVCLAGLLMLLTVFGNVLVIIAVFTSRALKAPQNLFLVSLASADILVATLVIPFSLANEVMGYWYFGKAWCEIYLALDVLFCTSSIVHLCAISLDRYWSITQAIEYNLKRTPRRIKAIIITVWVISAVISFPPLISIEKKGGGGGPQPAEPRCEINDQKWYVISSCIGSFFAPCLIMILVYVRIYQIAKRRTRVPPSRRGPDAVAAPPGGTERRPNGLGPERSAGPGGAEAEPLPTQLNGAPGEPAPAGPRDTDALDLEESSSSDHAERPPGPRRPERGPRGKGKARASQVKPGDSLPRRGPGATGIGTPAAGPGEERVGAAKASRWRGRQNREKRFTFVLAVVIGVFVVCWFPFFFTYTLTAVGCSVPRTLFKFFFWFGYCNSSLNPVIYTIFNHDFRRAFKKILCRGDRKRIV
The format is functional, cell-based.

In assay [9] the target is T5, Alpha-2A adrenergic receptor. The format is functional, cell-based. The source holds these as a separate data set.

By AC50 is commonly meant the concentration giving half of the maximal activity seen.
Further: assay procedure not described here.

D(1A) dopamine receptor, sequence (P21728 whole entry): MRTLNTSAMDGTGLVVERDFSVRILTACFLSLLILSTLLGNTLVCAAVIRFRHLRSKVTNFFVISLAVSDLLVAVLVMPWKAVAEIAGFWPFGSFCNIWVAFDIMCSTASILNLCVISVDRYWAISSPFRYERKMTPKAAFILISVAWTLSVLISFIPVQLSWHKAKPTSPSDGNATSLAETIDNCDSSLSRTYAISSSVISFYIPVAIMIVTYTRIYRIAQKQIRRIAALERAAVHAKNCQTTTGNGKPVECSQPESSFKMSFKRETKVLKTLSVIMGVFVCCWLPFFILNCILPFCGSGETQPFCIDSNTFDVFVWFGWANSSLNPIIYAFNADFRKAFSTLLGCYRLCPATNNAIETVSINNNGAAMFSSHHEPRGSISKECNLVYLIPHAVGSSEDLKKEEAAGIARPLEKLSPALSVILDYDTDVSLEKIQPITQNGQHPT
Gamma-aminobutyric acid receptor subunit alpha-1, sequence (P62813 whole entry): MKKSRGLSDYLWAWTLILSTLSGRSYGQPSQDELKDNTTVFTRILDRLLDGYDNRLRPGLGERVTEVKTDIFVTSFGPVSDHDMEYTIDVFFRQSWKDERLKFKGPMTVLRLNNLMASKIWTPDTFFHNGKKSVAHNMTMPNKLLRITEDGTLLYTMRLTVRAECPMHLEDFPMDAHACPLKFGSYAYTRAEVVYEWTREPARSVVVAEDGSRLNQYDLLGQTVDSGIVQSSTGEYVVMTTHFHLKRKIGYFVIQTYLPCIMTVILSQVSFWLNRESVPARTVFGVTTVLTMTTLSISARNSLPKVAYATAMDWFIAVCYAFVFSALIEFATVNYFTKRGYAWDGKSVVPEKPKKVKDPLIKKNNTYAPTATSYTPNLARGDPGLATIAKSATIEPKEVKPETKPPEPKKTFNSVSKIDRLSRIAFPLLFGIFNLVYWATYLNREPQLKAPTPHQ
D(3) dopamine receptor, sequence (P35462 whole entry): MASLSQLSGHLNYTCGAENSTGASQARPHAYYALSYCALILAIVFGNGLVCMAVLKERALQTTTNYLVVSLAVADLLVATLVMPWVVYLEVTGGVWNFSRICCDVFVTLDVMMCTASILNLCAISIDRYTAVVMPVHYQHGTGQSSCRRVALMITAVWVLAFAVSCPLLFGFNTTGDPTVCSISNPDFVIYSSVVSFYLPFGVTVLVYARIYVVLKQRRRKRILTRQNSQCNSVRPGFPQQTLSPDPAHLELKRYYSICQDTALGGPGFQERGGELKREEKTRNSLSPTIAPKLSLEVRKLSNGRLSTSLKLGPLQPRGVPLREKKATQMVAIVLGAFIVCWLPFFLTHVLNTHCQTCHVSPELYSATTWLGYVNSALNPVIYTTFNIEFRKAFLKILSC
Melanocortin receptor 3, sequence (P41968 whole entry): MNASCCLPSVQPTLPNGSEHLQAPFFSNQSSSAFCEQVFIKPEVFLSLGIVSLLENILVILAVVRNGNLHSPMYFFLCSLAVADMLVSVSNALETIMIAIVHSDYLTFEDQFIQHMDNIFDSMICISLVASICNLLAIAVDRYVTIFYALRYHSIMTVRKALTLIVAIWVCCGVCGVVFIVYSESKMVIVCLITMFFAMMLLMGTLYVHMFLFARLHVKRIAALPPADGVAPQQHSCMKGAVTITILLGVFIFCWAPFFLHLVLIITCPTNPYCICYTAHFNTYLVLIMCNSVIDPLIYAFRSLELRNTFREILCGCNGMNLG
5-hydroxytryptamine receptor 2B, sequence (P41595 whole entry): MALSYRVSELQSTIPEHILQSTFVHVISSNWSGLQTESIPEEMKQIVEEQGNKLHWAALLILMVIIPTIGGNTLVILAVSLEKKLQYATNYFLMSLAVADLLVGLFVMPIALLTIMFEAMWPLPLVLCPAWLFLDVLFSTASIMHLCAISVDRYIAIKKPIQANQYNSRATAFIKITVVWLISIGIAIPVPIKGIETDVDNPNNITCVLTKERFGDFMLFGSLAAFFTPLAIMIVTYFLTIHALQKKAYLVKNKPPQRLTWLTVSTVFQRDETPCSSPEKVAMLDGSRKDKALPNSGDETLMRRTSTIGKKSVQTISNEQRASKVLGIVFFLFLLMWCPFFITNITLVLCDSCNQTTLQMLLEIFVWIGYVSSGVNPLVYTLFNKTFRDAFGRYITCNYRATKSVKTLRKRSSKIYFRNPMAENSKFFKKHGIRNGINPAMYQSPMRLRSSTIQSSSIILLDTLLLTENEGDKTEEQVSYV

Consider `CCOC(=O)[C@H](CCc1ccccc1)N[C@@H](C)C(=O)N1CCC[C@H]1C(=O)O`, for which the AC50 was over 10 µM in [1]; over 10 µM on D(1A) dopamine receptor; over 10 µM on D(3) dopamine receptor; over 30 µM at Melanocortin receptor 3; over 10 µM in [2]; over 10 µM in assay [3]. The AC50 is over 30 µM at Adenosine receptor A3; over 30 µM in assay [4]; over 10 µM in assay [5]; over 30 µM in assay [6]; over 30 µM in assay [7]; over 10 µM in assay [8]. Further, in assay [9], the concentration at half-maximal activity (AC50) is over 10 µM.

In the case of `CS(=O)(=O)c1ccc([C@@H](O)[C@@H](CO)NC(=O)C(Cl)Cl)cc1` [THIAMPHENICOL], the AC50 (in assay [1]; on D(1A) dopamine receptor; on D(3) dopamine receptor; at Melanocortin receptor 3; in assay [2]; in assay [3]) was over 30 µM in each case. For the same compound, the AC50 (at Adenosine receptor A3; in [4]; in assay [5]; in assay [6]; in assay [7]; in [8]) was over 30 µM each time. Moreover, in assay [9], the AC50 was over 30 µM.

With `CCCS(=O)(=O)Nc1ccc(F)c(C(=O)c2c[nH]c3ncc(-c4ccc(Cl)cc4)cc23)c1F` [VEMURAFENIB], the AC50 (in assay [1]; on D(1A) dopamine receptor; on D(3) dopamine receptor; at Melanocortin receptor 3; in [2]; in [3]) was over 30 µM in each case. The AC50 at Adenosine receptor A3 was 18 µM; in [4], over 30 µM; in assay [5], over 30 µM; in [6] it was over 30 µM; in assay [7], over 30 µM; in assay [8] it was over 30 µM. In addition, the AC50 in [9] is over 30 µM.

As to `CCc1ccc(CCOc2ccc(CC3SC(=O)NC3=O)cc2)nc1` (stereo not given) [PIOGLITAZONE], the concentration at half-maximal activity (AC50) in assay [1] is over 10 µM; on D(1A) dopamine receptor, over 10 µM; at D(3) dopamine receptor, over 10 µM; on Melanocortin receptor 3 it was over 30 µM; in assay [2], over 10 µM; in [3], over 10 µM. Further, the AC50 at Adenosine receptor A3 was over 30 µM; in assay [4], over 30 µM; in assay [5] it was over 10 µM; in assay [6], over 30 µM; in [7] it was over 30 µM; in assay [8], over 10 µM. In assay [9], this compound showed a concentration at half-maximal activity (AC50) of over 10 µM.

As for `N[C@@H](C(=O)N[C@@H]1C(=O)N2C(C(=O)O)=C(Cl)CS[C@H]12)c1ccccc1` [CEFACLOR ANHYDROUS], the AC50 (in assay [1]; at D(1A) dopamine receptor; on D(3) dopamine receptor; on Melanocortin receptor 3; in assay [2]; in assay [3]) was over 30 µM in each case. In addition, the AC50 on Adenosine receptor A3 is 24 µM; in [4] it was over 30 µM; in assay [5], over 30 µM; in [6] it was over 30 µM; in assay [7], over 30 µM; in [8], over 30 µM. In assay [9], this compound yielded an AC50 of over 30 µM.

Regarding `NC1=NC(=O)C(c2ccccc2)O1` (stereo not given) [PEMOLINE], the AC50 in assay [1] is over 10 µM; on D(1A) dopamine receptor, over 10 µM; on D(3) dopamine receptor, over 30 µM; at Melanocortin receptor 3, over 30 µM; in assay [2] it was over 30 µM; in [3], over 10 µM. Moreover, the AC50 was over 30 µM at Adenosine receptor A3; over 30 µM in assay [4]; over 10 µM in assay [5]; over 30 µM in assay [6]; over 30 µM in assay [7]; over 10 µM in [8]. Moreover, the AC50 in assay [9] was over 10 µM.

With `CC(C(=O)O)c1ccc(N2CC=CC2)c(Cl)c1` (stereo not given) [PIRPROFEN], the AC50 is over 10 µM in assay [1]; over 10 µM at D(1A) dopamine receptor; over 10 µM on D(3) dopamine receptor; over 30 µM at Melanocortin receptor 3; over 30 µM in [2]; over 10 µM in [3]. In addition, the AC50 was over 30 µM at Adenosine receptor A3; over 30 µM in assay [4]; over 10 µM in assay [5]; over 30 µM in assay [6]; over 30 µM in assay [7]; over 10 µM in assay [8]. The AC50 in assay [9] is over 10 µM.

In the case of `Nc1nc(N)c2nc(-c3ccccc3)c(N)nc2n1`, the concentration at half-maximal activity (AC50) in assay [1] is over 30 µM; on D(1A) dopamine receptor, over 30 µM; on D(3) dopamine receptor, over 30 µM; at Melanocortin receptor 3, over 30 µM; in [2], 24 µM; in [3], over 30 µM. For the same compound, the AC50 (at Adenosine receptor A3; in assay [4]; in [5]; in assay [6]; in [7]; in assay [8]) was over 30 µM throughout. Moreover, the concentration at half-maximal activity (AC50) in [9] was over 30 µM.

For the compound `CC(C)C(=O)Nc1ccc([N+](=O)[O-])c(C(F)(F)F)c1` [FLUTAMIDE], the AC50 is over 10 µM in [1]; over 30 µM on D(1A) dopamine receptor; over 30 µM on D(3) dopamine receptor; over 30 µM on Melanocortin receptor 3; over 30 µM in assay [2]; over 10 µM in assay [3]. Further, the AC50 at Adenosine receptor A3 is over 30 µM; in [4], 2.53 µM; in assay [5], over 10 µM; in [6], over 10 µM; in [7] it was over 30 µM; in assay [8], over 10 µM. The compound further came in with an AC50 in assay [9] of over 10 µM.

As for `NC(=O)c1ncn([C@@H]2O[C@H](CO)[C@@H](O)[C@H]2O)c1O` [MIZORIBINE], the AC50 in assay [1] is over 10 µM; at D(1A) dopamine receptor, over 30 µM; on D(3) dopamine receptor it was over 30 µM; at Melanocortin receptor 3, over 30 µM; in [2] it was over 30 µM; in [3], over 30 µM. For the same compound, the AC50 (at Adenosine receptor A3; in assay [4]; in assay [5]; in assay [6]; in [7]; in [8]) was over 30 µM each time. This compound also yielded an AC50 in assay [9] of over 30 µM.

The record behind these values is ChEMBL document CHEMBL5291721, “A preclinical secondary pharmacology resource illuminates target-adverse drug reaction associations of marketed drugs” (Nat Commun, 2023).
